Measured values: patent US10588317B2, “Isoxazoline-substituted benzamides and analogues as insecticides” (priority 2015, dated 2020)

Tests used:
Assay type in all cases: in vivo
[1] = system: Tetranychus urticae; test: Tetranychus urticae (two-spotted spider mite): feeding/contact activity; conditions: 192 h, application rate 200 ppm, mixed population (mobile stages), 8 days after infestation, read-out: mortality
Method: Bean leaf discs on agar in 24-well microtiter plates were sprayed with aqueous test solutions prepared from 10'000 ppm DMSO stock solutions. After drying the leaf discs were infested with a mite population of mixed ages. The samples were assessed for mortality on mixed population (mobile stages) 8 days after infestation.

[2] = system: Diabrotica balteata; test: Diabrotica balteata (corn root worm), sprayed maize sprouts; conditions: 96 h, application rate 200 ppm, L2 larvae, 4 days after infestation, read-out: effect in at least one of the two categories (mortality or growth inhibition)
Method in brief: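 Maize sprouts on agar sprayed with aqueous dilutions of DMSO stocks, dried, then infested with L2 larvae (6–10 per well). Mortality and growth inhibition scored against untreated controls 4 days after infestation, at 200 ppm application rate.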

[3] = system: Thrips tabaci; test: Thrips tabaci (onion thrips): feeding/contact activity; conditions: 144 h, application rate 200 ppm, Thrips population of mixed ages, 6 days after infestation, read-out: mortality
Method: Sunflower leaf discs were placed on agar in 24-well microtiter plates and sprayed with aqueous test solutions prepared from 10'000 ppm DMSO stock solutions. After drying the leaf discs were infested with a Thrips population of mixed ages. The samples were assessed for mortality 6 days after infestation.

[4] = system: Euschistus heros; test: Euschistus heros (neotropical brown stink bug), sprayed soybean leaves; conditions: 120 h, application rate 200 ppm, N2 nymphs, 5 days after infestation, read-out: effect in at least one of the two categories (mortality or growth inhibition)
Method in brief: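 Soybean leaves on agar sprayed with aqueous dilutions of DMSO stocks, dried, then infested with N2 nymphs. Mortality and growth inhibition scored against untreated samples 5 days after infestation; application rate 200 ppm.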

[5] = system: Myzus persicae; test: Myzus persicae (green peach aphid): feeding/contact activity; conditions: 144 h, application rate 200 ppm, aphid population of mixed ages, 6 days after infestation, read-out: mortality
Method: Sunflower leaf discs were placed onto agar in a 24-well microtiter plate and sprayed with aqueous test solutions prepared from 10'000 ppm DMSO stock solutions. After drying, the leaf discs were infested with an aphid population of mixed ages. The samples were assessed for mortality 6 days after infestation.

[6] = system: Spodoptera littoralis; test: Spodoptera littoralis (Egyptian cotton leaf worm), sprayed cotton leaf discs; conditions: foliar, 72 h, application rate 200 ppm, L1 larvae, 3 days after infestation, read-out: control (mortality, anti-feeding effect, growth inhibition)
Method in brief: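 Cotton leaf discs on agar sprayed with aqueous test solutions made from 10'000 ppm DMSO stock; after drying, infested with five L1 larvae. Mortality, anti-feeding and growth inhibition scored versus untreated samples 3 days after infestation; control counted when any category exceeds untreated.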

[7] = system: Spodoptera littoralis; test: Spodoptera littoralis (Egyptian cotton leaf worm), uptake by lettuce roots from agar; conditions: 144 h, read-out: effect in at least one of the three categories (mortality, anti-feeding, or growth inhibition)
From the text: Test compounds were applied by pipette from 10'000 ppm DMSO stock solutions into 24-well plates and mixed with agar. Lettuce seeds were placed onto the agar and the multi well plate was closed by another plate which contained also agar. After 7 days the compound was absorbed by the roots and the lettuce grew into the lid plate. The lettuce leaves were then cut off into the lid plate. Spodoptera eggs were pipetted through a plastic stencil onto a humid gel blotting paper and the lid plate was closed with it. The samples were assessed for mortality, anti-feedant effect and growth inhibition in comparison to untreated samples 6 days after infestation.
The following compounds gave an effect of at least 80% in at least one of the three categories (mortality, anti-feeding, or growth inhibition) at a test rate of 12.5 ppm: […]

[8] = system: Plutella xylostella; test: Plutella xylostella (diamond back moth), artificial diet; conditions: 120 h, application rate 200 ppm, L2 larvae, 5 days after infestation, read-out: effect in at least one of the two categories (mortality or growth inhibition)
Method in brief: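 Artificial diet in 24-well plates treated with aqueous test solutions made from 10'000 ppm DMSO stocks, dried, then infested with L2 larvae (10 to 15 per well). Mortality and growth inhibition scored against untreated samples 5 days after infestation; activity cut-off at least 80% in either category at 200 ppm.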

CCS(=O)(=O)N1CC(NC(=O)c2ccc(C3=NO[C@@](c4cc(Cl)c(F)c(Cl)c4)(C(F)(F)F)C3)cc2Br)CO1 (stereo partly drawn) [Compound A44, 2-bromo-4-[(5S)-5-(3,5-dichloro-4-fluoro-phenyl)-5-(trifluoromethyl)-4H-isoxazol-3-yl]-N-(2-ethylsulfonylisoxazolidin-4-yl)benzamide]
≥ 80%: mortality at 200 ppm [1] | percent effect (mortality or growth inhibition) at 200 ppm [2] | mortality at 200 ppm [3] | percent effect (mortality or growth inhibition) at 200 ppm [4] | mortality at 200 ppm [5] | mortality at 200 ppm [6] | percent control (mortality, anti-feedant effect or growth inhibition) at 12.5 ppm [7] | percent effect (mortality or growth inhibition) at 200 ppm [8]

Cc1cc(C2=NO[C@@](c3cc(Cl)c(F)c(Cl)c3)(C(F)(F)F)C2)ccc1C(=O)NC1CON(S(=O)(=O)CCC(F)(F)F)C1 (some centres unmarked) [Compound A11]
≥ 80%: mortality at 200 ppm [1] | percent effect (mortality or growth inhibition) at 200 ppm [2] | mortality at 200 ppm [3] | percent effect (mortality or growth inhibition) at 200 ppm [4] | mortality at 200 ppm [5] | mortality at 200 ppm [6] | percent control (mortality, anti-feedant effect or growth inhibition) at 12.5 ppm [7] | percent effect (mortality or growth inhibition) at 200 ppm [8]

CNS(=O)(=O)N1CC(NC(=O)c2ccc(C3=NO[C@@](c4cc(Cl)c(Cl)c(Cl)c4)(C(F)(F)F)C3)cc2C)CO1 (stereo partly drawn) [Compound A69, 2-methyl-N-[2-(methylsulfamoyl)isoxazolidin-4-yl]-4-[(5S)-5-(3,4,5-trichlorophenyl)-5-(trifluoromethyl)-4H-isoxazol-3-yl]benzamide]
≥ 80%: mortality at 200 ppm [1] | percent effect (mortality or growth inhibition) at 200 ppm [2] | mortality at 200 ppm [3] | percent effect (mortality or growth inhibition) at 200 ppm [4] | mortality at 200 ppm [5] | mortality at 200 ppm [6] | percent control (mortality, anti-feedant effect or growth inhibition) at 12.5 ppm [7] | percent effect (mortality or growth inhibition) at 200 ppm [8]

CCNS(=O)(=O)N1C[C@@H](NC(=O)c2ccc(C3=NO[C@@](c4cc(Cl)c(F)c(Cl)c4)(C(F)(F)F)C3)cc2C)CO1 [Compound A133, 4-[(5S)-5-(3,5-dichloro-4-fluoro-phenyl)-5-(trifluoromethyl)-4H-isoxazol-3-yl]-N-[(4R)-2-(ethylsulfamoyl)isoxazolidin-4-yl]-2-methyl-benzamide]
≥ 80%: mortality at 200 ppm [1] | percent effect (mortality or growth inhibition) at 200 ppm [2] | mortality at 200 ppm [3] | percent effect (mortality or growth inhibition) at 200 ppm [4] | mortality at 200 ppm [5] | mortality at 200 ppm [6] | percent control (mortality, anti-feedant effect or growth inhibition) at 12.5 ppm [7] | percent effect (mortality or growth inhibition) at 200 ppm [8]

CNS(=O)(=O)N1C[C@@H](NC(=O)c2ccc(C3=NO[C@@](c4cc(Cl)cc(C(F)(F)F)c4)(C(F)(F)F)C3)cc2Cl)CO1 [Compound A115, 2-chloro-4-[(5S)-5-[3-chloro-5-(trifluoromethyl)phenyl]-5-(trifluoromethyl)-4H-isoxazol-3-yl]-N-[(4R)-2-(methylsulfamoyl)isoxazolidin-4-yl]benzamide]
≥ 80%: mortality at 200 ppm [1] | percent effect (mortality or growth inhibition) at 200 ppm [2] | mortality at 200 ppm [3] | percent effect (mortality or growth inhibition) at 200 ppm [4] | mortality at 200 ppm [5] | mortality at 200 ppm [6] | percent control (mortality, anti-feedant effect or growth inhibition) at 12.5 ppm [7] | percent effect (mortality or growth inhibition) at 200 ppm [8]

Cc1cc(C2=NO[C@@](c3cc(Cl)c(F)c(Cl)c3)(C(F)(F)F)C2)ccc1C(=O)NC1CON(S(=O)(=O)CCl)C1 (stereo partly drawn) [Compound A5, N-[2-(chloromethylsulfonyl)isoxazolidin-4-yl]-4-[(5S)-5-(3,5-dichloro-4-fluoro-phenyl)-5-(trifluoromethyl)-4H-isoxazol-3-yl]-2-methyl-benzamide]
≥ 80%: mortality at 200 ppm [1] | percent effect (mortality or growth inhibition) at 200 ppm [2] | mortality at 200 ppm [3] | percent effect (mortality or growth inhibition) at 200 ppm [4] | mortality at 200 ppm [5] | mortality at 200 ppm [6] | percent control (mortality, anti-feedant effect or growth inhibition) at 12.5 ppm [7] | percent effect (mortality or growth inhibition) at 200 ppm [8]

CNS(=O)(=O)N1C[C@@H](NC(=O)c2ccc(C3=NO[C@@](c4cc(Cl)cc(Cl)c4)(C(F)(F)F)C3)cc2Cl)CO1 [Compound A114, 2-chloro-4-[(5S)-5-(3,5-dichlorophenyl)-5-(trifluoromethyl)-4H-isoxazol-3-yl]-N-[(4R)-2-(methylsulfamoyl)isoxazolidin-4-yl]benzamide]
≥ 80%: mortality at 200 ppm [1] | percent effect (mortality or growth inhibition) at 200 ppm [2] | mortality at 200 ppm [3] | percent effect (mortality or growth inhibition) at 200 ppm [4] | mortality at 200 ppm [5] | mortality at 200 ppm [6] | percent control (mortality, anti-feedant effect or growth inhibition) at 12.5 ppm [7] | percent effect (mortality or growth inhibition) at 200 ppm [8]

CCNS(=O)(=O)N1C[C@@H](NC(=O)c2ccc(C3=NO[C@@](c4cc(Cl)cc(C(F)(F)F)c4)(C(F)(F)F)C3)cc2C)CO1 [Compound A134]
≥ 80%: mortality at 200 ppm [1] | percent effect (mortality or growth inhibition) at 200 ppm [2] | mortality at 200 ppm [3] | percent effect (mortality or growth inhibition) at 200 ppm [4] | mortality at 200 ppm [5] | mortality at 200 ppm [6] | percent control (mortality, anti-feedant effect or growth inhibition) at 12.5 ppm [7] | percent effect (mortality or growth inhibition) at 200 ppm [8]

Cc1cc(C2=NOC(c3cc(Cl)c(Br)c(Cl)c3)(C(F)(F)F)C2)ccc1C(=O)NC1CON(S(C)(=O)=O)C1 (centres unmarked) [Compound A45]
≥ 80%: mortality at 200 ppm [1] | percent effect (mortality or growth inhibition) at 200 ppm [2] | mortality at 200 ppm [3] | percent effect (mortality or growth inhibition) at 200 ppm [4] | mortality at 200 ppm [5] | mortality at 200 ppm [6] | percent control (mortality, anti-feedant effect or growth inhibition) at 12.5 ppm [7] | percent effect (mortality or growth inhibition) at 200 ppm [8]

CCNS(=O)(=O)N1CC(NC(=O)c2ccc(C3=NO[C@@](c4cc(Cl)c(F)c(Cl)c4)(C(F)(F)F)C3)cc2C)CO1 (some centres unmarked) [Compound A95]
≥ 80%: mortality at 200 ppm [1] | percent effect (mortality or growth inhibition) at 200 ppm [2] | mortality at 200 ppm [3] | percent effect (mortality or growth inhibition) at 200 ppm [4] | mortality at 200 ppm [5] | mortality at 200 ppm [6] | percent control (mortality, anti-feedant effect or growth inhibition) at 12.5 ppm [7] | percent effect (mortality or growth inhibition) at 200 ppm [8]

CCS(=O)(=O)N1C[C@@H](NC(=O)c2ccc(C3=NO[C@@](c4cc(Cl)cc(Cl)c4)(C(F)(F)F)C3)cc2Cl)CO1 [Compound A117]
≥ 80%: mortality at 200 ppm [1] | percent effect (mortality or growth inhibition) at 200 ppm [2] | mortality at 200 ppm [3] | percent effect (mortality or growth inhibition) at 200 ppm [4] | mortality at 200 ppm [5] | mortality at 200 ppm [6] | percent control (mortality, anti-feedant effect or growth inhibition) at 12.5 ppm [7] | percent effect (mortality or growth inhibition) at 200 ppm [8]

CNS(=O)(=O)N1C[C@@H](NC(=O)c2ccc(C3=NO[C@@](c4cc(Cl)cc(Cl)c4)(C(F)(F)F)C3)cc2C)CO1 [Compound A139, 4-[(5S)-5-(3,5-dichlorophenyl)-5-(trifluoromethyl)-4H-isoxazol-3-yl]-2-methyl-N-[(4R)-2-(methylsulfamoyl)isoxazolidin-4-yl]benzamide]
≥ 80%: mortality at 200 ppm [1] | percent effect (mortality or growth inhibition) at 200 ppm [2] | mortality at 200 ppm [3] | percent effect (mortality or growth inhibition) at 200 ppm [4] | mortality at 200 ppm [5] | mortality at 200 ppm [6] | percent control (mortality, anti-feedant effect or growth inhibition) at 12.5 ppm [7] | percent effect (mortality or growth inhibition) at 200 ppm [8]

CS(=O)(=O)N1C[C@@H](NC(=O)c2ccc(C3=NO[C@@](c4cc(Cl)c(Cl)c(Cl)c4)(C(F)(F)F)C3)cc2Cl)CO1 [Compound A145]
≥ 80%: mortality at 200 ppm [1] | percent effect (mortality or growth inhibition) at 200 ppm [2] | mortality at 200 ppm [3] | percent effect (mortality or growth inhibition) at 200 ppm [4] | mortality at 200 ppm [5] | mortality at 200 ppm [6] | percent control (mortality, anti-feedant effect or growth inhibition) at 12.5 ppm [7] | percent effect (mortality or growth inhibition) at 200 ppm [8]
